Laboratory results: patent US5240946A, “((2-(amino-3,4-dioxo-1-cyclobuten-1-yl)amino)alkyl)-acid derivatives” (American Home Products Corporation, priority 1992, dated 1993)

How the values were obtained:
NMDA receptors = experiment: (3H)CPP binding displacement in rat brain homogenate; settings: for IC50: (3H)CPP 8 nM, rat brain homogenate, 23° C.
Protocol: It was determined that the compounds of this invention are competitive NMDA antagonists by determining their ability to inhibit binding of 3-(2-carboxypiperazinyl-4-yl)propyl-1-phosphonic acid (CPP), a known competitive NMDA antagonist, at NMDA receptors in rat brain homogenate. In a manner similar to the procedure of Murphy et al., J. Pharmacol. Exp. Therap. 240 (3) 778 (1987), rat brain homogenates from which endogenous glutamate had been removed were incubated with (3H)CPP (8 nM), the compound being tested and then buffer each for 15 minutes at 23° C. to obtain a final volume of 2 milliliters. The amount of radio ligand displaced by the test compound is expressed as a percentile of the radio ligand displaced by NMDA. The inhibitory concentration of test compound that will displace 50% of the labeled CPP is determined from dose-responseevaluations.
(§1) Where the displacement of CPP binding is expressed as a percentage, it is at the μM concentration given at the concentration in the parenthesis. Similarly, where percent inhibition of lethality at dose in parenthesis.

[1] = test system: male Swiss-albino mice (CD-1 strain), NMDA-induced lethality; experiment: NMDA induced lethality in mice (survival); type: in vivo, mouse; settings: for ED50: Mus musculus, 0.5 h, mice pretreated 30 min before NMDA 195 mg/kg i.p., observed 30 min; for percent inhibition of lethality: NMDA 195 mg/kg i.p.
Protocol: (§2) The mice were then observed for 30 minutes, noting the latency of onset of generalized myoclonus (uncontrollable hind leg scratching of limbs and/or torso muscle jerking with loss of righting reflex) and death. From the latter, the ED50 for survival is determined. In this standard experimental test procedure, the specific compounds tested and their activity, which representatively establish the activity for all the compounds herein, is presented in the following Table.
as §1

[2] = test system: ischemic brain damage in gerbils; settings: Boast et al., Brain Research 1988; cited from earlier work
[3] = test system: NMDA-induced convulsions in mice; settings: Lehmann et al. 1987; cited from earlier work
[4] = test system: Parkinsonian-like symptoms induced by MPTP in rats; settings: Turski et al., Nature 1991; cited from earlier work
[5] = test system: male Swiss-albino mice (CD-1 strain), generalized myoclonus; experiment: NMDA-induced generalized myoclonus in mice; type: in vivo; settings: Mus musculus, ip, read-out: ED90 dose for generalized myoclonus
Protocol: as §2

[6] = at dose in parenthesis 5 (in mg/kg)

| SMILES | IC50 (NMDA receptors) [nM] | ED50 [1] [mg/kg] | also measured |
| --- | --- | --- | --- |
| CCOC(=O)CNc1c(N)c(=O)c1=O [1(a), N-(2-amino-3,4-dioxo-1-cyclobutenyl)glycine ethyl ester] | 190000 | > 100 |  |
| Nc1c(NCC(=O)O)c(=O)c1=O [1(b), N-(2-amino-3,4-dioxo-1-cyclobutenyl)glycine] |  | > 100 |  |
| Nc1c(NCCCC(=O)O)c(=O)c1=O [1(c), 4-[(2-amino-3,4-dioxo-1-cyclobutenyl)amino]butanoic acid] | 10200 | > 100 |  |
| CNc1c(NCCC(=O)O)c(=O)c1=O [2(a), N-[2-(methylamino)-3,4-dioxo-1-cyclobutenyl]beta-alanine] | 19600 | > 100 |  |
| O=C(O)CCNc1c(NCc2ccccc2)c(=O)c1=O [2(b), 3-[[3,4-dioxo-2[(phenylmethyl)amino]-1-cyclobutenyl]amino]propanoic acid] | > 100000 | > 100 |  |
| C=C(C)CN(CC(=O)O)c1c(N)c(=O)c1=O [3(a), N-(2-amino-3,4-dioxo-1-cyclobutenyl)-N-(2-methyl-2-propenyl)glycine] | 30000 | > 100 |  |
| Nc1c(N(CC(=O)O)Cc2ccccc2)c(=O)c1=O [3(b), N-(2-amino-3,4-dioxo-1-cyclobutenyl)-N-(phenylmethyl)glycine] |  | > 100 | displacement of CPP binding (NMDA receptors; at 100 μM): 50% |
| Nc1c(NCP(=O)(O)O)c(=O)c1=O [4(a), [[(2-amino-3,4-dioxo-1-cyclobutenyl)amino]methyl]phosphonic acid] | > 10000 |  |  |
| Nc1c(NCCCP(=O)(O)O)c(=O)c1=O [4(b), [3-[(2-amino-3,4-dioxo-1-cyclobuten-1-yl)amino]propyl]phosphonic acid] | 2590 | > 100 |  |
| Nc1c(NCCCCP(=O)(O)O)c(=O)c1=O [4(c), [4-[(2-amino-3,4-dioxo-1-cyclobuten-1-yl)amino]butyl]phosphonic acid] |  | > 30 | displacement of CPP binding (NMDA receptors; at 10 μM): 68% |
| CN(CP(=O)(O)O)c1c(N)c(=O)c1=O [6(a), [[(2-amino-3,4-dioxo-1-cyclobuten-1-yl)methylamino]methyl]phosphonic acid] | > 10000 |  |  |
| CC1(C)CNc2c(c(=O)c2=O)N(CCP(=O)(O)O)C1 [9(a), [2-(4,4-dimethyl-8,9-dioxo-2,6-diazabicyclo[5.2.0]non-1(7)-en-2-yl)ethyl]phosphonic acid] | 280 |  | percent inhibition of lethality [1, 6]: 50% |
| O=c1c2c(c1=O)N(CCCP(=O)(O)O)CCCN2 [9(b), [3-(8,9-dioxo-2,6-diazabicyclo[5.2.0]non-1(7)-en-2-yl)propyl]phosphonic acid] | > 1000 | > 10 |  |
| O=c1c2c(c1=O)N(C/C=C/P(=O)(O)O)CCCN2 [9(c), [(E)-3-(8,9-dioxo-2,6-diazabicyclo[5.2.0]non-1(7)-en-2-yl)-1-propenyl]phosphonic acid] | > 10000 | > 5 |  |
| O=C(O)CCN1CCCNc2c1c(=O)c2=O [10(a), 3-(8,9-dioxo-2,6-diazabicyclo[5.2.0]non-1(7)-en-2-yl)propanoic acid] | 340 | > 20 |  |
| O=c1c2c(c1=O)N(CCc1nnn[nH]1)CCCN2 [11(a), 2-[2-(1H-tetrazol-5-yl)ethyl]-2,6-diazabicyclo[5.2.0]non-1(7)-ene-8,9-dione] |  | > 5 | displacement of CPP binding (NMDA receptors; at 10 μM): 40% |
| O=C(O)C1CN(CCCP(=O)(O)O)CCN1 (stereo not shown) [CPP, 4-(3-phosphonopropyl)-2-piperazinecarboxylic acid] |  |  | prevention of ischemic brain damage [2]: shown to prevent ischemic brain damage in gerbils; prevention of NMDA-induced convulsions [3]: NMDA-induced convulsions have been prevented by CPP in mice; prevention of Parkinsonian-like symptoms induced by MPTP [4]: shown to prevent the Parkinsonian-like symptoms induced by MPTP |
| Nc1c(NCCC(=O)O)c(=O)c1=O [Example 1, N-(2-Amino-3,4-dioxo-1-cyclobuten-1-yl)beta-alanine] |  | > 100 |  |
| Nc1c(NCCn2oc(=O)[nH]c2=O)c(=O)c1=O [Example 2, 2-[2-[(2-Amino-3,4-dioxo-1-cyclobuten-1-yl)amino]ethyl]-1,2,4-oxadiazolidine-3,5-dione] | 5200 | > 100 |  |
| C=CCN(CC(=O)O)c1c(N)c(=O)c1=O [Example 3, N-(2-Amino-3,4-dioxo-1-cyclobuten-1-yl)-N-(2-propenyl)glycine] | 10500 | > 100 |  |
| Nc1c(NCCP(=O)(O)O)c(=O)c1=O [Example 4, [2-[(2-Amino-3,4-dioxo-1-cyclobuten-1-yl)amino]ethyl]phosphonic acid] | 471 |  |  |
| Nc1c(NC/C=C/CP(=O)(O)O)c(=O)c1=O [Example 5, [(E)-4-[(2-Amino-3,4-dioxo-1-cyclobuten-1-yl)amino]-2-butenyl]phosphonic acid] |  | > 30 | displacement of CPP binding (NMDA receptors; at 10 μM): 52% |
| CN(CCP(=O)(O)O)c1c(N)c(=O)c1=O [Example 6, [2-[(2-Amino-3,4-dioxo-1-cyclobuten-1-yl)methylamino]ethyl]phosphonic acid] | 1000 |  | percent inhibition of lethality ([1]; at dose in parenthesis 50 (in mg/kg)): 50% |
| O=c1c2c(c1=O)N(CCP(=O)(O)O)CCN2 [Example 7, [2-(7,8-Dioxo-2,5-diazabicyclo[4.2.0]oct-1(6)-en-2-yl)ethyl]phosphonic acid] | 92 | 6.2 |  |
| O=c1c2c(c1=O)N(CCP(=O)(O)O)CCCN2 [Example 8, [2-(8,9-Dioxo-2,6-diazabicyclo[5.2.0]non-1(7)-en-2-yl)ethyl]phosphonic acid] | 30 | 2.1 |  |
| O=c1c2c(c1=O)N(CCP(=O)(O)O)CC(O)CN2 (stereo not shown) [Example 9, [2-(4-hydroxy-8,9-dioxo-2,6-diazabicyclo[5.2.0]non-1(7)-en-2-yl)ethyl]phosphonic acid] | 19 | 1.8 |  |
| O=C(O)CN1CCCNc2c1c(=O)c2=O [Example 10, 8,9-Dioxo-2,6-diazabicyclo[5.2.0]non-1(7)-ene-2-acetic acid] | 550 | > 20 |  |
| O=c1c2c(c1=O)N(Cc1nnn[nH]1)CCCN2 [Example 11, 2-[(1H-Tetrazol-5-yl)methyl]-2,6-diazabicyclo[5.2.0]non-1(7)-ene-8,9-dione] | 38 | > 10 |  |
| O=c1c2c(c1=O)N(CCP(=O)(O)O)CCCCN2 [Example 12, [2-(9,10-Dioxo-2,7-diazabicyclo[6.2.0]dec-1(8)-en-2-yl)ethyl]phosphonic acid] | 41 |  | percent inhibition of lethality [1, 6]: 80% |
| CN[C@H](CC(=O)O)C(=O)O [NMDA, N-methyl-D-aspartic acid] |  |  | ED90 [5]: 195 mg/kg |
